Consider 28 molecules from patent US10278957B2, “Opioid agonist peptides and uses thereof” (Protagonist Therapeutics, Inc., priority 2017, dated 2019).

What is called EC50 is the concentration at which the effect is half-maximal. The low end stands for an effect from little substance, the high end for a need for much substance.

The target in one assay is T1, μ-opioid receptor (MOR) (Homo sapiens, UniProt P35372).
T1 construct: host or cells: cAMP Hunter CHO-K1 OPRM1 Gαi cell line
As to the kind of experiment: MOR agonist cAMP assay (HitHunter cAMP, forskolin-stimulated). The assay is classed as cell-based. As to the method:
The HitHunter® cAMP chemiluminescent assay kit (DiscoveRx, Cat# 90-0075 SM25) was used to detect cAMP production in cAMP Hunter™ Gαi cell lines over expressing either Human-ORPM1 (Discoverx, Catalog# 95-0107C2) or Human-ORPD1 (DiscoveRx, Catalog# 95-0108C2). Opioid agonist binding to the Gαi receptors inhibits the intracellular cAMP accumulation induced by forskolin, which activates adenylate cyclase and increases intracellular levels of cAMP.
Cells were cultured in media consisting of Ham's F-12 Nutrient Mix (Life Technologies, Catalog#31765035), 10% FBS (Life Technologies, Catalog# 16140-071), 4 mM GlutaMAX (Life Technologies, Catalog#35050-061), […] (Life Technologies), 100 ug/ml of Penn-Strep (Life Technologies) and 0.5 mg/ml Geneticin (Life Technologies, Catalog# 10131-027). The cultures were maintained at 37° C. under 5% CO2.
In preparation for cAMP assay, the cells were seeded at a density of 300,000 cells/ml in 100 ul of media/well in 96-well microplate. Wells that were designated for cAMP standards were left empty.
Opioid agonist serial dilutions were prepared in separate dilution plate (11-point series of 3× (3-fold) dilution) in Cell Assay buffer, including 3× forskolin for Gαi target. For Hunter CHO-K1 OPRM1 or CHO-K1 OPRD1 Gαi Cell Lines, the final forskolin concentration was 20 uM.
15 ul of each 3× opioid agonist serial dilution was added in the presence of forskolin in duplicate to the designated wells. The final concentration of each dilution was at 3× of the final screening concentration. The assay plate was incubated for 30 min, at 37° C. under 5% CO2.
Cellular cAMP concentrations were measured using the HitHunter cAMP Assay kit following the manufacturer's protocol. HitHunter cAMP assay is a gain-of-signal competitive immunoassay based on Enzyme Fragment Complementation (EFC) technology. The kit uses β-galactosidase (β-gal) enzyme split into Enzyme Donor (ED) and Enzyme Acceptor (EA). The cellular cAMP and ED-labelled cAMP compete for anti-cAMP antibody. […] When cellular cAMP level is high, it competes for the anti-cAMP antibody, thereby releasing ED-cAMP to complement with EA to produce a luminescent signal. The amount of signal is directly proportional to the amount of cAMP in cells and can be quantified using cAMP standards. The assay plates were read using a PerkinElmer Envision instrument to detect the chemiluminescence signal in each well (luminescence reader at 0.1 to 1 second/well). Data analysis was performed using Graphpad Prism 7.EC50 was calculated by nonlinear regression, using the four-parameter hill equation.

The next assay has as its target T2, δ-opioid receptor (DOR) (Homo sapiens, UniProt P41143).
T2 construct: host or cells: cAMP Hunter CHO-K1 OPRD1 Gαi cell line
Description: DOR agonist cAMP assay (HitHunter cAMP, forskolin-stimulated). The assay is classed as cell-based. The method, boiled down: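 CHO-K1 Gαi cells expressing OPRM1 or OPRD1 were exposed 30 min at 37° C to 11-point threefold agonist dilutions, in duplicate, with 20 uM forskolin final. cAMP quantified by EFC chemiluminescent competitive immunoassay against cAMP standards. EC50 by four-parameter Hill nonlinear regression.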

Numbered stars: 1 amine (or outer) side, 2 acyl side, 3 side chain; on linkers, the order of the positions; unused ones are H or OH. Bridge positions count the residues as written; N and C are the ends. Square brackets hold non-standard residues; d marks the D form. Peptide text beside a SMILES is read from it. I, II: the chains in the order shown. Diglycolyl = O=C(COCC(=O)[*:2])[*:1]; Dmt = Cc1cc(O)cc(C)c1C[C@H](N)C(=O)O; hPhe = N[C@@H](CCc1ccccc1)C(=O)O; dTic = O=C(O)[C@H]1Cc2ccccc2CN1; β3hF = N[C@H](CC(=O)O)Cc1ccccc1; Nle = CCCC[C@H](N)C(=O)O; dNMeA = CN[C@H](C)C(=O)O; Sar = CNCC(=O)O

T2 sequence (P41143 whole entry): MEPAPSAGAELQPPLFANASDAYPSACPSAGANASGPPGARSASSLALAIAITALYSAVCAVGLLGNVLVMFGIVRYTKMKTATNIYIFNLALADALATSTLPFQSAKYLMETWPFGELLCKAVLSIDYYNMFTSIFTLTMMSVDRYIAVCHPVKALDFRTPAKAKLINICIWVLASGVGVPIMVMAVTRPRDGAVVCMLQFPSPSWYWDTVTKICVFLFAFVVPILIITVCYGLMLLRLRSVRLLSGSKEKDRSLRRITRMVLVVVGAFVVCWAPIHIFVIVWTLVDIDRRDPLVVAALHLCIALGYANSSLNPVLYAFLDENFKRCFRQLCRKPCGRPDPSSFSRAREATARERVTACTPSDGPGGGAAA
T1 sequence (P35372 whole entry): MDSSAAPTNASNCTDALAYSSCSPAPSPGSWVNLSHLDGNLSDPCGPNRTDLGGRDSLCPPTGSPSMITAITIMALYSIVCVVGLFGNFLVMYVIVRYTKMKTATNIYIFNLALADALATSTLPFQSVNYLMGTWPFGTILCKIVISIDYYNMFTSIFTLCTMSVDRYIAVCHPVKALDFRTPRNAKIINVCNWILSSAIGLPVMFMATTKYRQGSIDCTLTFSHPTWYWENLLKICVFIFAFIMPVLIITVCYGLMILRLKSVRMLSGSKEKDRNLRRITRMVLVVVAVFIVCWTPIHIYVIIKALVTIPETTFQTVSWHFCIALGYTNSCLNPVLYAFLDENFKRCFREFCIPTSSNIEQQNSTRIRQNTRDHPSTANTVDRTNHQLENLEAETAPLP

On to `Cc1cc(O)cc(C)c1C[C@H](N)C(=O)N1Cc2ccccc2C[C@@H]1C(=O)NCC(=O)N[C@@H](Cc1ccccc1)C(=O)N(C)CC(N)=O` [compound 45] (H-[Dmt][dTic]GF[Sar]-NH2), for which the EC50 on μ-opioid receptor (MOR) and at δ-opioid receptor (DOR) was < 1 nM in each case.
In the case of `CCC[C@@H](C(=O)O)N(C)C(=O)C[C@H](Cc1ccccc1)NC(=O)CNC(=O)[C@@H](C)NC(=O)[C@@H](N)Cc1c(C)cc(C(N)=O)cc1C` [compound 97], the EC50 at μ-opioid receptor (MOR) and at δ-opioid receptor (DOR) was < 1 nM throughout.
Consider `CCCC[C@@H](C(=O)O)N(C)C(=O)C[C@H](Cc1cccc(C)c1)NC(=O)CNC(=O)[C@@H](C)NC(=O)[C@@H](N)Cc1c(C)cc(O)cc1C` [compound 141], for which the EC50 at μ-opioid receptor (MOR) and at δ-opioid receptor (DOR) was < 1 nM throughout.
`Cc1cc(C(N)=O)cc(C)c1C[C@H](N)C(=O)N[C@H](C)C(=O)NCC(=O)N[C@H](CC(=O)NCC(N)=O)Cc1ccccc1` [compound 94]: the results for the EC50 on μ-opioid receptor (MOR) and at δ-opioid receptor (DOR) were < 1 nM and 1 to 10 nM, respectively.
For the molecule `CCCC[C@@H](C(=O)O)N(C)C(=O)C[C@H](Cc1ccc(F)cc1)NC(=O)CNC(=O)[C@@H](C)NC(=O)[C@@H](N)Cc1c(C)cc(O)cc1C` [compound 145], the EC50 at μ-opioid receptor (MOR) and on δ-opioid receptor (DOR) was < 1 nM throughout.
As to `CCCC[C@@H](C(=O)O)N(C)C(=O)C[C@H](Cc1cccc(F)c1)NC(=O)CNC(=O)[C@@H](C)NC(=O)[C@@H](N)Cc1c(C)cc(O)cc1C` [compound 144], the EC50 on μ-opioid receptor (MOR) and on δ-opioid receptor (DOR) was < 1 nM in each case.
With `CC[C@H](C)[C@@H](C(=O)O)N(C)C(=O)C[C@H](Cc1ccccc1)NC(=O)CNC(=O)[C@@H](CCC(=O)O)NC(=O)[C@@H](N)Cc1c(C)cc(O)cc1C` [compound 186], the EC50 on μ-opioid receptor (MOR) is 1 to 10 nM; at δ-opioid receptor (DOR) it was < 1 nM.
With `CC(=O)Nc1ccc(C[C@H](N)C(=O)N[C@H](C)C(=O)NCC(=O)N[C@H](CC(=O)N(C)CC(N)=O)Cc2ccccc2)cc1` [compound 59], the figures for the EC50 at μ-opioid receptor (MOR) and at δ-opioid receptor (DOR) were 10 to 50 nM and 50 to 200 nM, respectively.
Turning to `CCCC[C@@H](C(=O)O)N(C)C(=O)C[C@H](Cc1c[nH]c2ccccc12)NC(=O)CNC(=O)[C@@H](C)NC(=O)[C@@H](N)Cc1c(C)cc(C(N)=O)cc1C` [compound 139], the results for the EC50 at μ-opioid receptor (MOR) and at δ-opioid receptor (DOR) were < 1 nM and 1 to 10 nM, respectively.
For the molecule `CCCC[C@H](NC(=O)[C@H](CCc1ccccc1)NC(=O)[C@@H](C)NC(=O)[C@@H](N)Cc1c(C)cc(O)cc1C)C(N)=O` [compound 48] (H-[Dmt][dA][hPhe][Nle]-NH2), the EC50 on μ-opioid receptor (MOR) and on δ-opioid receptor (DOR) was < 1 nM throughout.
Turning to `CC[C@H](C)[C@@H](C(=O)O)N(C)C(=O)C[C@H](Cc1ccccc1)NC(=O)CNC(=O)[C@H](NC(=O)[C@@H](N)Cc1c(C)cc(O)cc1C)[C@H](C)O` [compound 182], the EC50 at μ-opioid receptor (MOR) and at δ-opioid receptor (DOR) was < 1 nM in each case.
`CC[C@H](C)[C@@H](C(=O)O)N(C)C(=O)C[C@H](Cc1ccccc1)NC(=O)CNC(=O)[C@@H](C)NC(=O)[C@@H](N)Cc1c(C)cc(O)cc1C` [compound 113]: the EC50 on μ-opioid receptor (MOR) and at δ-opioid receptor (DOR) was < 1 nM throughout.
For `Cc1cc(O)cc(C)c1C[C@H](N)C(=O)N[C@H](C)C(=O)NCC(=O)N[C@H](CC(=O)N(C)CC(=O)N[C@H](CCCCNC(=O)COCC(=O)NCCCC[C@@H](NC(=O)CN(C)C(=O)C[C@H](Cc1ccccc1)NC(=O)CNC(=O)[C@@H](C)NC(=O)[C@@H](N)Cc1c(C)cc(O)cc1C)C(N)=O)C(N)=O)Cc1ccccc1` [compound 271] (I: H-[Dmt][dA]G[β3hF][Sar][dK]-NH2 / II: H-[Dmt][dA]G[β3hF][Sar][dK]-NH2; linker I:6-II:6 via Diglycolyl), the EC50 on μ-opioid receptor (MOR) and at δ-opioid receptor (DOR) was 1 to 10 nM each time.
In the case of `C[C@@H](NC(=O)[C@@H](N)Cc1c[nH]c2ccc(O)cc12)C(=O)NCC(=O)N[C@H](CC(=O)N(C)CC(N)=O)Cc1ccccc1` [compound 63], the EC50 on μ-opioid receptor (MOR) and on δ-opioid receptor (DOR) was 50 to 200 nM each time.
On to `Cc1cc(O)cc(C)c1C[C@H](N)C(=O)N[C@H](CCCNC(=N)N)C(=O)N[C@@H](Cc1c[nH]cn1)C(=O)N[C@@H](CCCCN)C(N)=O` [compound 4] (H-[Dmt][dR]HK-NH2), for which the EC50 at μ-opioid receptor (MOR) was 10 to 50 nM; on δ-opioid receptor (DOR), > 200 nM.
Taken in the same sequence, the figures for `Cc1cc(C(N)=O)cc(C)c1C[C@H](N)C(=O)N[C@H](C)C(=O)NCC(=O)N[C@H](CC(=O)N(C)[C@@H](Cc1ccccc1)C(=O)O)Cc1ccccc1` [compound 100] were 1 to 10 nM and 1 to 10 nM.
Take `Cc1cc(C(N)=O)cc(C)c1C[C@H](N)C(=O)N[C@@H](C)C(=O)NCC(=O)N[C@H](CC(=O)N(C)CC(=O)O)Cc1ccccc1` [compound 80]: the values for the EC50 on μ-opioid receptor (MOR) and at δ-opioid receptor (DOR) were 1 to 10 nM and 50 to 200 nM, respectively.
As to `CCCC[C@@H](C(=O)O)N(C)C(=O)C[C@H](Cc1ccc(I)cc1)NC(=O)CNC(=O)[C@@H](C)NC(=O)[C@@H](N)Cc1c(C)cc(O)cc1C` [compound 150], the EC50 at μ-opioid receptor (MOR) and at δ-opioid receptor (DOR) was < 1 nM each time.
In the case of `CCCC[C@@H](C(=O)O)N(C)C(=O)C[C@H](Cc1ccc(O)cc1)NC(=O)CNC(=O)[C@@H](C)NC(=O)[C@@H](N)Cc1c(C)cc(O)cc1C` [compound 152], the EC50 on μ-opioid receptor (MOR) and on δ-opioid receptor (DOR) was < 1 nM each time.
Consider `Cc1cc(O)cc(C)c1C[C@H](N)C(=O)N[C@H](C)C(=O)N[C@@H](CC(C)C)C(=O)N[C@H](CC(=O)N(C)CC(N)=O)Cc1ccccc1` [compound 67] (H-[Dmt][dA]L[β3hF][Sar]-NH2), for which the EC50 at μ-opioid receptor (MOR) is < 1 nM; on δ-opioid receptor (DOR) it was 10 to 50 nM.
On the same counts, the results for `Cc1cc(O)cc(C)c1C[C@H](N)C(=O)N[C@H](CC(=O)O)C(=O)NCC(=O)N[C@H](CC(=O)N(C)[C@@H](Cc1ccc(O)cc1)C(=O)O)Cc1ccccc1` [compound 180] are < 1 nM and < 1 nM.
Consider `CC[C@H](C)[C@@H](C(=O)O)N(C)C(=O)C[C@H](Cc1ccccc1)NC(=O)CNC(=O)[C@@H](C)NC(=O)[C@@H](N)Cc1c(C)cc(C(N)=O)cc1C` [compound 95], for which the EC50 on μ-opioid receptor (MOR) was < 1 nM; at δ-opioid receptor (DOR), 1 to 10 nM.
On the same counts, the results for `Cc1cc(O)cc(C)c1C[C@H](N)C(=O)N(C)[C@H](C)C(=O)N[C@@H](Cc1ccccc1)C(=O)N(C)CC(N)=O` [compound 10] (H-[Dmt][dNMeA]F[Sar]-NH2) are < 1 nM and 1 to 10 nM.
Taken in the same sequence, the figures for `Cc1cc(C(N)=O)cc(C)c1C[C@H](N)C(=O)NC(C)(C)C(=O)NCC(=O)N[C@H](CC(=O)N(C)CC(N)=O)Cc1ccccc1` [compound 75] were < 1 nM and 10 to 50 nM.
`Cc1cc(O)cc(C)c1C[C@H](N)C(=O)N[C@H](C)C(=O)NCC(=O)N[C@H](CC(=O)N[C@@H](Cc1ccc2ccccc2c1)C(N)=O)Cc1ccccc1` [compound 114]: the EC50 at μ-opioid receptor (MOR) and at δ-opioid receptor (DOR) was 1 to 10 nM each time.
Take `Cc1cc(O)cc(C)c1C[C@H](N)C(=O)N[C@H](CCCNC(=N)N)C(=O)N[C@@H](Cc1ccccc1)C(=O)N(C)[C@@H](CCCCN)C(N)=O` [compound 5]: the EC50 on μ-opioid receptor (MOR) was < 1 nM; at δ-opioid receptor (DOR) it was > 200 nM.
Turning to `Cc1cc(O)cc(C)c1C[C@H](N)C(=O)N[C@H](CC(=O)O)C(=O)NCC(=O)N[C@H](CC(=O)N(C)[C@H](C(=O)O)c1ccccc1)Cc1ccccc1` [compound 176], the EC50 at μ-opioid receptor (MOR) and on δ-opioid receptor (DOR) was < 1 nM throughout.
With `CC[C@H](C)[C@@H](C(=O)O)N(C)C(=O)C[C@H](Cc1ccccc1)NC(=O)CNC(=O)[C@@H](CC(=O)O)NC(=O)[C@@H](N)Cc1c(C)cc(O)cc1C` [compound 172], the EC50 on μ-opioid receptor (MOR) and on δ-opioid receptor (DOR) was < 1 nM each time.
